Source: ChEMBL document CHEMBL3991601, “The target landscape of clinical kinase drugs” (Science, 2017)
Activity calls are given as the source filed them.

Key:
[1] = target: Serine/threonine-protein kinase ATR (Homo sapiens, UniProt Q13535)
[2] = target: Cyclin-dependent kinase 17 (Homo sapiens, UniProt Q00537)
[3] = target: Cyclin-dependent kinase 2 (Homo sapiens, UniProt P24941)
[4] = target: Dual specificity protein kinase CLK4 (Homo sapiens, UniProt Q9HAZ1)
[5] = target: Epidermal growth factor receptor (Homo sapiens, UniProt P00533)
[6] = target: Hepatocyte growth factor receptor (Homo sapiens, UniProt P08581)
Chain of Hepatocyte growth factor receptor (P08581 whole entry): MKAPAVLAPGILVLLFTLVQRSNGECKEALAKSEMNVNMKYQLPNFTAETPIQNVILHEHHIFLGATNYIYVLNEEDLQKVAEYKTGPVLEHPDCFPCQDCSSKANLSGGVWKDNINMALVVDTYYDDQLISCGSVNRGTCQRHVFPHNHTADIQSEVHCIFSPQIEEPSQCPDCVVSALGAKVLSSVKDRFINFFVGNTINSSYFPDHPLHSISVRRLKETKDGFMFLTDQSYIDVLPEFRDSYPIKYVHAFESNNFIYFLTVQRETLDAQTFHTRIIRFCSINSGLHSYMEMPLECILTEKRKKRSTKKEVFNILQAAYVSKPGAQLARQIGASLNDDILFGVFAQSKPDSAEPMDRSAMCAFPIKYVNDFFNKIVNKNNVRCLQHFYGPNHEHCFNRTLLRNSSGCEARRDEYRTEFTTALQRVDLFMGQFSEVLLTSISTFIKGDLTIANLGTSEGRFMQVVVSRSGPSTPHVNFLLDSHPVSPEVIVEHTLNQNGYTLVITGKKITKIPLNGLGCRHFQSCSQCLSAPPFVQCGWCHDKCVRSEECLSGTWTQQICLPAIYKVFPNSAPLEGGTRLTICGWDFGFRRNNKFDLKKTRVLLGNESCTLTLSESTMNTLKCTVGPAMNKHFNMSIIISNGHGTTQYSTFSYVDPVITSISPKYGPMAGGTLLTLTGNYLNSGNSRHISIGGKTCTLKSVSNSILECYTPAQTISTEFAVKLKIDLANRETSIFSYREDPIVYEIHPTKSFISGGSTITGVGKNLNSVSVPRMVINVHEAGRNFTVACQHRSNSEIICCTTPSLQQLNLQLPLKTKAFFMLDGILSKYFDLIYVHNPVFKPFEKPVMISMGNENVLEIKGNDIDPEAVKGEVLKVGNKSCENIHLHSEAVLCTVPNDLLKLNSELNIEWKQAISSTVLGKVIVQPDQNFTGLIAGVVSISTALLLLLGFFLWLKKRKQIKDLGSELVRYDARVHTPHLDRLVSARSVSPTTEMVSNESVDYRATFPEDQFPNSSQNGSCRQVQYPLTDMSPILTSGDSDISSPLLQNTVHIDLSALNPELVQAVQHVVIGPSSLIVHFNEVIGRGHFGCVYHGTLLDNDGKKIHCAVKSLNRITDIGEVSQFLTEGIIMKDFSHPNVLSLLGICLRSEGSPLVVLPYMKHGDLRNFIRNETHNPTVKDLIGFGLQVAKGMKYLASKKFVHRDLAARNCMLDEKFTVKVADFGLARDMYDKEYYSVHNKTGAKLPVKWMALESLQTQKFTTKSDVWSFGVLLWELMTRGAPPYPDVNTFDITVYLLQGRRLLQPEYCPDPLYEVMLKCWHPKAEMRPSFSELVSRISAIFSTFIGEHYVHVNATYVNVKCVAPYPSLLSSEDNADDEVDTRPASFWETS

Obg-like ATPase 1 = Obg-like ATPase 1 (Homo sapiens, UniProt Q9NTK5)
Chain of Obg-like ATPase 1 (Q9NTK5 whole entry, looked up): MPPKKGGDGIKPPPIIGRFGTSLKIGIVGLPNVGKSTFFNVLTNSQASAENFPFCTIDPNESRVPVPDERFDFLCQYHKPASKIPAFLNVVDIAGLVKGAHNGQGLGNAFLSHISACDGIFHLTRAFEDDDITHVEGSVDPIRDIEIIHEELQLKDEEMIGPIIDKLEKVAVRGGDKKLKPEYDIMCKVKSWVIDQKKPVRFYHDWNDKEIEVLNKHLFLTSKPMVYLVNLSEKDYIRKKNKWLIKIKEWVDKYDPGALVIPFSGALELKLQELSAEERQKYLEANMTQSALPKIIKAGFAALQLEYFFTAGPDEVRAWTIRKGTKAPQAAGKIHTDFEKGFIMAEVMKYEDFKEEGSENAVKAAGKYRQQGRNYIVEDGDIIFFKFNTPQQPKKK

[7] = target: Membrane-associated progesterone receptor component 1 (Homo sapiens, UniProt O00264)
Chain of Membrane-associated progesterone receptor component 1 (O00264 whole entry): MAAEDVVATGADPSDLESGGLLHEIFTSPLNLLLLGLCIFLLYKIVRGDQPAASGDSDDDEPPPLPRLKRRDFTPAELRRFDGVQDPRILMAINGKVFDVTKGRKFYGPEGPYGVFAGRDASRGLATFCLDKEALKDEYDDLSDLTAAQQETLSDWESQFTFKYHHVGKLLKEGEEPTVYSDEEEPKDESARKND

[8] = target: Serine/threonine-protein kinase PLK1 (Homo sapiens, UniProt P53350)
Chain of Serine/threonine-protein kinase PLK1 (P53350 whole entry): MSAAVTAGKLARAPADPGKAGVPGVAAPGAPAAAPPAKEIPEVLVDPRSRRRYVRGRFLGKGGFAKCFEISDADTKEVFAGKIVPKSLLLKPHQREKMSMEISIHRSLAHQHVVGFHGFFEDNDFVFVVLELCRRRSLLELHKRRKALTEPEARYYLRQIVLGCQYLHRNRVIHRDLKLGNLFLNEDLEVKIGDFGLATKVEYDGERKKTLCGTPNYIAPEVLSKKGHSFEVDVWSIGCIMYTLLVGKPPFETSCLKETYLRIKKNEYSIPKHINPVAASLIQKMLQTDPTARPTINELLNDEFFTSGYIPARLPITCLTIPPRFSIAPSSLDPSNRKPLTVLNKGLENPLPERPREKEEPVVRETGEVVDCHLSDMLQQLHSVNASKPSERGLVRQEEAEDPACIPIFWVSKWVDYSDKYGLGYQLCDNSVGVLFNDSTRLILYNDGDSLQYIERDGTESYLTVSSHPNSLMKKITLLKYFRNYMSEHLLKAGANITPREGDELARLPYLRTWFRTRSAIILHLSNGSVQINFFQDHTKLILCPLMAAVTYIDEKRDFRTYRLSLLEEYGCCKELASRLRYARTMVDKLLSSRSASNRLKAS

[9] = target: T1, Protein kinase C zeta type (Homo sapiens, UniProt Q05513)
T1 sequence (Q05513 whole entry): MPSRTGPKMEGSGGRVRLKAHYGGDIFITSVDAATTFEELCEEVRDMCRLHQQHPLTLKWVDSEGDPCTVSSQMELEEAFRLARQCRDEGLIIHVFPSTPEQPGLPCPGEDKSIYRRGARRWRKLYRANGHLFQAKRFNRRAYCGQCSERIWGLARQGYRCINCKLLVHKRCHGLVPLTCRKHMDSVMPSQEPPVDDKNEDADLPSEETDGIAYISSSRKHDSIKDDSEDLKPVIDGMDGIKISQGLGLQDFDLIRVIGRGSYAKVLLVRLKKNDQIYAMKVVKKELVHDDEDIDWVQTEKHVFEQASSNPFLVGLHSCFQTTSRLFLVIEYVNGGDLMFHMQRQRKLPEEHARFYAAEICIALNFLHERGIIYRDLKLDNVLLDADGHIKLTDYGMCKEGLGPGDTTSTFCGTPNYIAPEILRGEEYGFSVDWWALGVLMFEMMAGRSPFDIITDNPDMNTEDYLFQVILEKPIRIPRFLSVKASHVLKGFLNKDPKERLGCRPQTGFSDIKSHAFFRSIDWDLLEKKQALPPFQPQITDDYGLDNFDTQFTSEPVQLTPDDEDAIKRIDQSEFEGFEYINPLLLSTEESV

[10] = target: Serine/threonine-protein kinase 24 (Homo sapiens, UniProt Q9Y6E0)
Chain of Serine/threonine-protein kinase 24 (Q9Y6E0 whole entry): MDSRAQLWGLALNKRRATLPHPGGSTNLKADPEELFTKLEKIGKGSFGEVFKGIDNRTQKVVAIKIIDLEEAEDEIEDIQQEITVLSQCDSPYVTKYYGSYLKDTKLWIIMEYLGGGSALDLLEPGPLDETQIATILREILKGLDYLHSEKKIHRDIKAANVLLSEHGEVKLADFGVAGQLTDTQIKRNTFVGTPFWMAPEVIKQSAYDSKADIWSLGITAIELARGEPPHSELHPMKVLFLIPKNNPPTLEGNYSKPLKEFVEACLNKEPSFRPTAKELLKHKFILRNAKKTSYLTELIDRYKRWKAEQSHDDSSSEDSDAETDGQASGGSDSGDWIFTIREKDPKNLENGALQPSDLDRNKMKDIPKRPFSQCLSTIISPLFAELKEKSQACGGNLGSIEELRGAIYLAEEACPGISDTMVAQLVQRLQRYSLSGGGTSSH

[11] = target: T2, Thyroid hormone receptor-associated protein 3 (Homo sapiens, UniProt Q9Y2W1)
T2 sequence (Q9Y2W1 whole entry): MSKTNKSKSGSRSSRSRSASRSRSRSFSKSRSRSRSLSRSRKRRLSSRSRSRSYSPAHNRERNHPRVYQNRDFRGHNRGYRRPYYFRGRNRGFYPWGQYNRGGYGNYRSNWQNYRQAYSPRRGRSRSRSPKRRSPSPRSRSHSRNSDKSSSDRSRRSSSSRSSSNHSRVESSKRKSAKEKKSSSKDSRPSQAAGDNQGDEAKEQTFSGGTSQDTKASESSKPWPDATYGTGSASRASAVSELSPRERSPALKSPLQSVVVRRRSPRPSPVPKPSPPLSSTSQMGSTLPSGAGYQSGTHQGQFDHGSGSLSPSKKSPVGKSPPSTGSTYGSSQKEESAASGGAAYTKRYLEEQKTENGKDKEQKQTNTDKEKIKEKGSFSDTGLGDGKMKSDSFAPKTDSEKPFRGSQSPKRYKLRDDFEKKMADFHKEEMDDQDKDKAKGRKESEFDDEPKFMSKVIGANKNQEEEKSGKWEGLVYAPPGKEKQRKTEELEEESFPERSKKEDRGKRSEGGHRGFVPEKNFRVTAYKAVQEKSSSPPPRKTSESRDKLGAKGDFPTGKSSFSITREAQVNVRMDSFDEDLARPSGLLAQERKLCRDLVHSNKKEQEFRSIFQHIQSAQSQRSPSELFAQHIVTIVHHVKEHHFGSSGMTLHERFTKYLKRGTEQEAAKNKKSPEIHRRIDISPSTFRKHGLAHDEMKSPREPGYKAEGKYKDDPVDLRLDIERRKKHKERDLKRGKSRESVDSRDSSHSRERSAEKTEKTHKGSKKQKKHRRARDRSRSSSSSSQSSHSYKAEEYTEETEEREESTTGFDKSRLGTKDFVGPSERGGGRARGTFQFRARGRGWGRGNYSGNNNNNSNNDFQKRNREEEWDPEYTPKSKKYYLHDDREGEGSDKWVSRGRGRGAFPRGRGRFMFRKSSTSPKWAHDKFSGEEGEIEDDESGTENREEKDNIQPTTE

[12] = target: T3, Dual specificity protein kinase TTK (Homo sapiens, UniProt P33981)
T3 sequence (P33981 whole entry): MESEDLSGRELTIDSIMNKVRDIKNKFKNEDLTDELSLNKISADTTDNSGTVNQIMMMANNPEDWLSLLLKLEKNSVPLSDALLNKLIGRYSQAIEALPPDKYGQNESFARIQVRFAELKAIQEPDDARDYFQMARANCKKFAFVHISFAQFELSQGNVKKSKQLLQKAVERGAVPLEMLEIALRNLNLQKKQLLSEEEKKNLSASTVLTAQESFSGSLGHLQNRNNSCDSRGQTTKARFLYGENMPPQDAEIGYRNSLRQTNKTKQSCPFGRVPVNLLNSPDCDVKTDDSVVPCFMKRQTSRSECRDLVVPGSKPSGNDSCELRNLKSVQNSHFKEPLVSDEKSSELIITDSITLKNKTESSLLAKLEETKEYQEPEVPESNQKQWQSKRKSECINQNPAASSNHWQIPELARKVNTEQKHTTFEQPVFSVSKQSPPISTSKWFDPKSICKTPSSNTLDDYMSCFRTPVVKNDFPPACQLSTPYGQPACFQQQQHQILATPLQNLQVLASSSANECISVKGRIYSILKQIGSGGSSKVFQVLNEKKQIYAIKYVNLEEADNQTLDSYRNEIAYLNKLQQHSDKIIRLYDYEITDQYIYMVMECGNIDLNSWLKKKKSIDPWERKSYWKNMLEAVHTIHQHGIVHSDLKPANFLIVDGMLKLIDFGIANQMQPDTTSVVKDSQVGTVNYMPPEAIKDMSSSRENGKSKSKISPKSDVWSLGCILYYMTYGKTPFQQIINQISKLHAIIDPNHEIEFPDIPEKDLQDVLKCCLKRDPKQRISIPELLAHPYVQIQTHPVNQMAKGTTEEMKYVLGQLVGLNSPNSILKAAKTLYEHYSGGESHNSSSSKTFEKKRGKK

[13] = target: Serine/threonine-protein kinase pim-2 (Homo sapiens, UniProt Q9P1W9)
Chain of Serine/threonine-protein kinase pim-2 (Q9P1W9 whole entry): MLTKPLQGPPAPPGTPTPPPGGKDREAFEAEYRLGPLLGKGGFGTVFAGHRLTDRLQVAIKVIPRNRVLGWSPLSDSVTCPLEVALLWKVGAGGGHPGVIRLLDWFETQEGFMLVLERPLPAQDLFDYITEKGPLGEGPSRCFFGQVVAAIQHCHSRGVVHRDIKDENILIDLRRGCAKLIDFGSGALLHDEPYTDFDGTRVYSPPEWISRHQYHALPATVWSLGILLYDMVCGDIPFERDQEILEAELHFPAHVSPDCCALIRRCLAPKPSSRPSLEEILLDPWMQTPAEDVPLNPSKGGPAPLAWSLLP
Also: in the data inactive means no Kd found up to 30 µM.

Chain of Dual specificity protein kinase CLK4 (Q9HAZ1 whole entry): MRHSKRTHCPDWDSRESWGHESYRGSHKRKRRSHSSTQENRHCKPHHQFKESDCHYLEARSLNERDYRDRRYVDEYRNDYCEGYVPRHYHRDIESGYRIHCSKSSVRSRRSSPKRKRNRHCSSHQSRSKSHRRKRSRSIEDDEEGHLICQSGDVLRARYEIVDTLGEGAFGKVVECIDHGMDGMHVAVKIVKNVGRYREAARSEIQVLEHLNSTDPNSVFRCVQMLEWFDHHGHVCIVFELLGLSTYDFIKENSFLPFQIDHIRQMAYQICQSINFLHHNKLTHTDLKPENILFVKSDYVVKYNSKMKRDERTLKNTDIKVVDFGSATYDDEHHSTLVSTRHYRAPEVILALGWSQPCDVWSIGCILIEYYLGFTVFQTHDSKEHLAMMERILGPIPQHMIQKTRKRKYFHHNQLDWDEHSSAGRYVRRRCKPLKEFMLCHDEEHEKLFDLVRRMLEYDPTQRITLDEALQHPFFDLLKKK
Chain of Cyclin-dependent kinase 17 (Q00537 whole entry): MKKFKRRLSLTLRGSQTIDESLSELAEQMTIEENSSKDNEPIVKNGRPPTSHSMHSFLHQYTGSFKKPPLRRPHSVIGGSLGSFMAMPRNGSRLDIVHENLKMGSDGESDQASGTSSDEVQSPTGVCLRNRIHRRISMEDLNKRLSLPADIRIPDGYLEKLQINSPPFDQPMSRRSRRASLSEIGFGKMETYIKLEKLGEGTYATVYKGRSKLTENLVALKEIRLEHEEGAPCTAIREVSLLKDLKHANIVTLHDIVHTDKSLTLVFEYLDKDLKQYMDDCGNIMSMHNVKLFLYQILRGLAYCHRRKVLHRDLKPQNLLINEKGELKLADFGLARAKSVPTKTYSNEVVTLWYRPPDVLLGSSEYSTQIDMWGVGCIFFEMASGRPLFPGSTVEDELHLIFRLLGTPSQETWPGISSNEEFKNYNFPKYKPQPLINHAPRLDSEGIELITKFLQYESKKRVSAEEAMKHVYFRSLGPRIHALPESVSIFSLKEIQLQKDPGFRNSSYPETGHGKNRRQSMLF

| SMILES | Kd [1] | Kd [2] | Kd [3] | Kd [4] | Kd [5] | Kd [6] | Kd (Obg-like ATPase 1) | Kd [7] | Kd [8] | Kd [9] | Kd [10] | Kd [11] | Kd [12] | Kd [13] |
| --- | --- | --- | --- | --- | --- | --- | --- | --- | --- | --- | --- | --- | --- | --- |
| CNC(=O)c1cc(Oc2ccc(NC(=O)Nc3ccc(Cl)c(C(F)(F)F)c3)c(F)c2)ccn1 [REGORAFENIB] | – | 0.719 µM (active) | > 30 µM (inactive) | > 30 µM (inactive) | > 30 µM (inactive) | > 30 µM (inactive) | > 30 µM (inactive) | > 30 µM (inactive) | > 30 µM (inactive) | – | > 30 µM (inactive) | – | 3.92 µM | > 30 µM (inactive) |
| Cc1ccc(S(=O)(=O)Nc2nc3ccccc3nc2Nc2ccc3nsnc3c2)cc1 | > 30 µM (inactive) | > 30 µM (inactive) | > 30 µM (inactive) | > 30 µM (inactive) | > 30 µM (inactive) | – | > 30 µM (inactive) | – | > 30 µM (inactive) | > 30 µM (inactive) | > 30 µM (inactive) | > 30 µM (inactive) | > 30 µM (inactive) | – |
| Cc1c(F)cc(C(=O)NC2CC2)cc1-c1ccc(C(=O)NCC(C)(C)C)cn1 [LOSMAPIMOD] | – | > 30 µM (inactive) | > 30 µM (inactive) | – | > 30 µM (inactive) | – | > 30 µM (inactive) | – | > 30 µM (inactive) | – | 0.011 µM | – | > 30 µM (inactive) | > 30 µM (inactive) |
| CC(=O)Nc1cccc(-n2c(=O)n(C3CC3)c(=O)c3c(Nc4ccc(I)cc4F)n(C)c(=O)c(C)c32)c1 [TRAMETINIB] | – | > 30 µM (inactive) | > 30 µM (inactive) | > 30 µM (inactive) | > 30 µM (inactive) | > 30 µM (inactive) | > 30 µM (inactive) | > 30 µM (inactive) | > 30 µM (inactive) | > 30 µM (inactive) | > 30 µM (inactive) | > 30 µM (inactive) | > 30 µM (inactive) | > 30 µM (inactive) |
| Cc1cc(-c2cc(O)ccc2Cl)cc2nnc(Nc3ccc(OCCN4CCCC4)cc3)nc12 | > 30 µM (inactive) | > 30 µM (inactive) | > 30 µM (inactive) | – | > 30 µM (inactive) | > 30 µM (inactive) | > 30 µM (inactive) | > 30 µM (inactive) | > 30 µM (inactive) | > 30 µM (inactive) | > 30 µM (inactive) | – | > 30 µM (inactive) | > 30 µM (inactive) |
| CN1CCC(COc2cnc(-c3cccc(Cn4nc(-c5cccc(C#N)c5)ccc4=O)c3)nc2)CC1 [TEPOTINIB] | > 30 µM (inactive) | > 30 µM (inactive) | – | – | – | – | > 30 µM (inactive) | > 30 µM (inactive) | > 30 µM (inactive) | > 30 µM (inactive) | – | > 30 µM (inactive) | > 30 µM (inactive) | – |
| Cc1ccc(NC(=O)c2ccc(CN3CC[C@H](N(C)C)C3)c(C(F)(F)F)c2)cc1Nc1nccc(-c2cncnc2)n1 [BAFETINIB] | > 30 µM (inactive) | > 30 µM (inactive) | > 30 µM (inactive) | > 30 µM (inactive) | > 30 µM (inactive) | > 30 µM (inactive) | > 30 µM (inactive) | > 30 µM (inactive) | > 30 µM (inactive) | > 30 µM (inactive) | – | > 30 µM (inactive) | > 30 µM (inactive) | > 30 µM (inactive) |
| Cc1ccc(-n2nc(C(C)(C)C)cc2NC(=O)NCc2cc(F)ccc2Oc2ccc3c(cnn3CCO)c2)cc1 [PEXMETINIB] | – | 0.402 µM (active) | > 30 µM (inactive) | > 30 µM (inactive) | > 30 µM (inactive) | > 30 µM (inactive) | > 30 µM (inactive) | > 30 µM (inactive) | > 30 µM (inactive) | – | > 30 µM (inactive) | – | > 30 µM (inactive) | > 30 µM (inactive) |

Now from value to compound:

| Kd [1] | Kd [2] | Kd [3] | Kd [4] | Kd [5] | Kd [6] | Kd (Obg-like ATPase 1) | Kd [7] | Kd [8] | Kd [9] | Kd [10] | Kd [11] | Kd [12] | Kd [13] | SMILES |
| --- | --- | --- | --- | --- | --- | --- | --- | --- | --- | --- | --- | --- | --- | --- |
| > 30 µM (inactive) | > 30 µM (inactive) | > 30 µM (inactive) | > 30 µM (inactive) | > 30 µM (inactive) | > 30 µM (inactive) | > 30 µM (inactive) | > 30 µM (inactive) | > 30 µM (inactive) | > 30 µM (inactive) | > 30 µM (inactive) | > 30 µM (inactive) | > 30 µM (inactive) | – | Cc1cc([C@@H](C)Nc2ccccc2C(=O)O)c2nc(N3CCOCC3)cc(=O)n2c1 [AZD-6482] |
| > 30 µM (inactive) | > 30 µM (inactive) | > 30 µM (inactive) | – | – | > 30 µM (inactive) | > 30 µM (inactive) | – | > 30 µM (inactive) | – | > 30 µM (inactive) | > 30 µM (inactive) | > 30 µM (inactive) | > 30 µM (inactive) | CCN1CCN(Cc2ccc(-c3cc4c(N[C@H](C)c5ccccc5)ncnc4[nH]3)cc2)CC1 [AEE-788] |
| > 30 µM (inactive) | > 30 µM (inactive) | > 30 µM (inactive) | – | > 30 µM (inactive) | > 30 µM (inactive) | > 30 µM (inactive) | > 30 µM (inactive) | > 30 µM (inactive) | > 30 µM (inactive) | > 30 µM (inactive) | > 30 µM (inactive) | > 30 µM (inactive) | – | O=C1NC(=O)/C(=C/c2ccc3nccc(-c4ccncc4)c3c2)S1 [GSK-1059615] |
| – | > 30 µM (inactive) | > 30 µM (inactive) | – | > 30 µM (inactive) | > 30 µM (inactive) | > 30 µM (inactive) | – | > 30 µM (inactive) | > 30 µM (inactive) | > 30 µM (inactive) | > 30 µM (inactive) | > 30 µM (inactive) | – | CN1CCC(CNc2ccc3ncc(-c4cccc(OC(F)(F)F)c4)n3n2)CC1 [SGI-1776] |
| > 30 µM (inactive) | > 30 µM (inactive) | > 30 µM (inactive) | – | > 30 µM (inactive) | – | > 30 µM (inactive) | > 30 µM (inactive) | > 30 µM (inactive) | > 30 µM (inactive) | > 30 µM (inactive) | > 30 µM (inactive) | > 30 µM (inactive) | > 30 µM (inactive) | OCCn1cc(-c2cnc3nnn(Cc4ccc5ncccc5c4)c3n2)cn1 [PF-04217903] |
